Columns and labels:
[1] = test system: cultured chick heart cells; experiment: Effect of TPB on the Ko-dependence of Tc-MIBI influx rates; plasma membrane potential by Goldman flux equation (FIG. 6); format: cell-based
Method: FIG. 6. Effect of TPB on the Ko -dependence of Tc-MIBI influx rates. A) Preparations were preincubated in MEBSS containing the indicated Ko (K-MSA substitution for NaCl) for 1 minute in the absence (.quadrature.) and for 5 minutes in the presence ( ) of valinomycin (1 ug/ml) prior to determination of 2-min Tc-MIBI uptakes in buffer of the same composition. B) Same conditions as A with a 5-minute pre-incubation period in buffers that also contained TPB (10^-5 M) in the absence (o) or presence (·) of valinomycin. C) Resting membrane potential (Em) as a function of Ko. Em was calculated from the Tc-MIBI influx data shown in A in the presence of valinomycin using the Goldman flux equation (Restrepo, D., et al., J. Gen. Physiol. 92:489-507 (1988)): J/Jo =-x/(1-e^x) where x=Em F/RT and J/Jo is the ratio of Tc-MIBI influx rates at Em and zero membrane potential (Ko =130 mM), respectively. RT/F equals 26 mV at 37° C. The solid lines in A and B have no theoretical significance. The solid line in C represents a linear regression of the data: -Em =-67 log Ko +147mV (r=-0.99). […] Each point is the mean ±SEM of 3 determinations.
(§1) Monolayers of spontaneously contractile chick ventricular myocardial cells were obtained from disaggregated 10-day old chick embryo hearts by a slight modification of previously published methods (Horres, C. R., et al., In Pinson, A. (ed.), The Heart Cell in Culture, Boca Raton, CRC Press, pp. 77-108 (1987)). Hearts were trimmed of connective tissue and atria, finely minced and serially exposed to 0.024% (w/v) trypsin in Ca^2+ - and Mg^2+ - free Earle's salt solution for 7 minutes at 37° C. Gentle trituration and agitation on an orbital shaker bath aided disaggregation. Cells released from the first exposure were discarded and cells aspirated from the next four exposures were then added to an equal volume of trypsin deactivating solution consisting of ice-cold culture medium. Cells were centrifuged at 400 g for 10 minutes, resuspended and combined in culture medium, counted with a hemocytometer and diluted to yield a suspension of 5×10^5 cells/ml. 12 ml of suspension were incubated in 100 mm plastic culture dishes containing 7 coverslips (25 mm diameter) placed on the bottom of each dish to serve as substrate for cell growth. Cells were maintained in a humidified atmosphere of 5% CO2 /95% air for 3-4 days yielding a confluent layer of spontaneously contractile myocytes on each coverslip.
(§2) Radioactive uptake methods have been described in detail (Piwnica-Worms, D., et al, Circ. (in press). Briefly, coverslips with confluent cells were removed from culture media and pre-equilibrated for 40-60 seconds in MEBSS buffer. Uptake and retention experiments were initiated by immersion of coverslips in 60 mm glass Pyrex dishes containing loading solution consisting of buffer with 0.1-0.6 nM [^99m Tc-MIBI] (0.01-0.4 Ci/nmole; 25-100 uCi/ml). Preparations were removed at various times and rinsed three times in 25 ml volumes of ice-cold (2° C.) isotope-free buffer for 8 seconds each to clear extracellular spaces. Preparations and aliquots of the loading buffer and stock solutions were counted in a well-type sodium iodide gamma counter after which cell protein on each coverslip was extracted in 1% sodium dodecylsulfate with 10 mM sodium borate and assayed by the method of Lowry (Lowry, O. H., et al., J. Biol. Chem. 193:265-275 (1951)). Tc-MIBI binding to glass coverslips without cells was used as an estimate of non-specific adhesion to the substrate ([…] obtained with cellular preparations); this value was subtracted from total uptake determinations to derive the cell-associated counts. Use of generator equilibrium equations (Lamson, M. L., et al., i J. Nucl. Med. 16:639-641 (1975)) allowed calculation of absolute moles of Tc-MIBI in solutions and preparations. Results were therefore expressed as fmol cellular Tc-MIBI/mg protein per nM extracellular Tc-MIBI concentration. […]

[2] = test system: cultured chick heart cells; experiment: Influence of TPB and CCCP on (membrane potential-independent) accumulation of Tc-MIBI (FIG. 4); format: cell-based; conditions: n=3-4
Method: FIG. 4. […] Preparations were incubated for the times indicated in 5.4 mM Ko control loading buffer containing tracer Tc-MIBI and TPB together (Δ) or in loading buffer containing Tc-MIBI alone (.quadrature.). For the latter incubation, TPB was added to the loading buffer at the arrow and cell content of Tc-MIBI subsequently determined (o). Under each condition, CCCP was added to the loading buffers as indicated by the arrows and cell content of Tc-MIBI determined ( , , ·). Each point is the mean ±SEM of 3 determinations.
as §1, §2

SMILES: [C-]#[N+]CC(C)(C)OC.[C-]#[N+]CC(C)(C)OC.[C-]#[N+]CC(C)(C)OC.[C-]#[N+]CC(C)(C)OC.[C-]#[N+]CC(C)(C)OC.[C-]#[N+]CC(C)(C)OC.[Tc] [Tc-MIBI, hexakis(methoxyisobutylisonitrile)technetium(I)]
- valinomycin sensitivity of Tc-MIBI influx ([1]; absence of TPB): only modestly valinomycin-sensitive
- valinomycin sensitivity of Tc-MIBI influx ([1]; presence of TPB 10^-5 M): highly valinomycin-sensitive
- Nernstian behavior of Tc-MIBI ([1]; presence of valinomycin): close to ideal Nernstian behavior
- correlation coefficient r, Em vs log Ko from Tc-MIBI influx ([1]; valinomycin 1 ug/ml, no TPB): -0.99
- slope of membrane potential vs log Ko from Tc-MIBI influx ([1]; valinomycin 1 ug/ml, no TPB, Goldman flux equation): -67 mV/decade
- regression -Em = -67 log Ko + 147 mV: intercept ([1]; valinomycin, FIG. 6C): 147 mV
- regression -Em = -67 log Ko + 147 mV: slope ([1]; valinomycin, FIG. 6C): -67
- Tc-MIBI 2 min uptake ([2]; +5×10^-6 M TPB, 5 seconds pre-incubation): 20.6±0.43 fmol Tc-MIBI/mg protein per nM
- Tc-MIBI 2 min uptake ([2]; +10^-7 M TPB, 5 seconds pre-incubation): 3.37±0.57 fmol Tc-MIBI/mg protein per nM
- Tc-MIBI 2 min uptake ([2]; control (no TPB)): 1.23±0.15 fmol Tc-MIBI/mg protein per nM

— patent US5277897A, “In vivo enhancement of cellular accumulation of lipophilic cationic organometallic compounds by reduction of intramembrane potential” (Brigham and Women's Hospital, priority 1992, dated 1994)
